# Results published in PubChem BioAssay (NCI).
# Where “and” joins values, the source holds several entries; their conditions need not be identical. Equal values may be shown once.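 Assay format: 96-well plates, 48-hour exposure. Here, GI50 denotes the concentration required for 50% inhibition of growth. The concentration for full growth arrest is given as TGI.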
# Key:
# Assay in all cases: NCI tumour cell line growth inhibition, 48 h
# [1] = system: HS 578T breast
# [2] = system: MDA-MB-231 breast
# [3] = system: SK-MEL-5 melanoma
# [4] = system: SNB-19 CNS
# [5] = system: OVCAR-8 ovarian
# [6] = system: RXF 393 renal
# [7] = system: TK-10 renal
# [8] = system: SW-620 colon
# [9] = system: CAKI-1 renal
# [10] = system: SR leukemia
Structure (SMILES),GI50 [1],TGI [1],GI50 [2],TGI [2],GI50 [3],TGI [3],GI50 [4],TGI [4],GI50 [5],TGI [5],GI50 [6],TGI [6],GI50 [7],TGI [7],GI50 [8],TGI [8],GI50 [9],TGI [9],GI50 [10],TGI [10]
O=S(=O)(c1ccc(Cl)cc1)C(Cl)(Cl)Cl,2.27 µM,29.2 µM,3.85 µM,23 µM,3.02 µM,12.1 µM,15.2 µM,> 78.1 µM,3.5 µM,35.5 µM,1.47 µM,8.91 µM,9.56 µM,> 75.1 µM,2.58 µM,11.7 µM,0.251 µM,0.879 µM,0.486 µM,39.7 µM
O=C1c2cccnc2C(=O)c2c1c(C(=O)NCCCN1CCCCC1)c1ccccn21,2.59 µM,9.75 µM,0.562 µM,7.23 µM,0.36 µM,1.35 µM,1.12 µM,2.57 µM,0.75 µM,5.58 µM,1.28 µM,3.4 µM,–,–,0.471 µM,2.14 µM,–,–,0.474 µM,> 100 µM
Fc1ccc(/C=N/n2c(-c3ccc(F)c(Cl)c3)nn(CNc3ccccc3C(F)(F)F)c2=S)cc1,45.2 µM,> 100 µM,67 µM,> 100 µM,33 µM,> 100 µM,> 100 µM,> 100 µM,43.1 µM,> 100 µM,59.4 µM,> 100 µM,38.7 µM,> 100 µM,86.2 µM,> 100 µM,> 100 µM,> 100 µM,31.2 µM,> 100 µM
CCCN(CCS(C)(=O)=O)Cc1ccc(-c2ccc3ncnc(Nc4ccc(OCc5cccc(F)c5)c(Cl)c4)c3c2)o1,> 25 µM,> 25 µM,> 25 µM,> 25 µM,> 14.1 µM,> 25 µM,> 25 µM,> 25 µM,> 25 µM,> 25 µM,24.9 µM,> 25 µM,0.175 µM,> 25 µM,> 25 µM,> 25 µM,0.997 µM,> 25 µM,> 20.9 µM,> 25 µM
COc1ccccc1-c1cc(=O)c2cc(C)cnc2[nH]1,–,> 100 µM,–,> 100 µM,20.4 µM,> 100 µM,–,> 100 µM,–,> 100 µM,–,> 100 µM,–,> 100 µM,–,> 100 µM,–,> 100 µM,–,> 100 µM
CN1CCN(C(=O)c2cc(-c3ccc4ncnc(N5CCc6cc(F)c(Cl)cc65)c4c3)cnc2N)CC1,0.116 µM,0.491 µM,0.444 µM,3.12 µM,0.209 µM,0.476 µM,0.413 µM,10.5 µM,0.29 µM,24.1 µM,0.0922 µM,0.48 µM,0.178 µM,1.45 µM,0.315 µM,1.82 µM,0.165 µM,1.21 µM,0.137 µM,–
NC(=O)c1csc(C2OC(CO)C(O)C2O)n1 (centres undefined),77.7 µM,875 µM,> 73.8 µM,> 6480 µM,> 31.6 µM,> 31.6 µM and 8280 µM,65.7 µM,7290 µM,31.1 µM,1570 µM,–,6320 µM,> 74.5 µM,> 10000 µM,30.6 µM,5900 µM,65.8 µM and > 50.1 µM,1220 µM,103 µM,> 6090 µM
CC(=O)/C=C/c1cn(C(=O)OC(C)(C)C)c2ccc(Br)cc12,26.8 µM,65.4 µM,18.9 µM,43.8 µM,13.6 µM,32.9 µM,15.4 µM,30.1 µM,16.2 µM,39 µM,15.6 µM,37 µM,17.6 µM,33.9 µM,19.1 µM,39 µM,22.1 µM,42.5 µM,71.6 µM,> 100 µM
O=S(=O)(Nc1cc(Sc2cccc3cccnc23)c(O)c2ccccc12)c1ccc(F)cc1,4.44 µM,45.7 µM,0.837 µM,8.9 µM,1.66 µM,3.16 µM,2.55 µM,17.1 µM,0.645 µM,10.3 µM,1.97 µM,5.43 µM,2.81 µM,11.5 µM,1.41 µM,3.86 µM,2.79 µM,–,0.465 µM,7.63 µM
O=C1/C(=C/c2ccccc2[N+](=O)[O-])Cc2ccccc21,3.7 µM,> 100 µM,1.7 µM,6.2 µM,3.11 µM,14 µM,10.6 µM,41.2 µM,2.12 µM,5.4 µM,1.45 µM,2.99 µM,3.14 µM,7.1 µM,1.27 µM,3.22 µM,3.13 µM,> 100 µM,0.495 µM,> 100 µM
COc1ccc2c(c1)N(CCO)C1=C(C(=O)OC1)C2c1cccc(F)c1 (centres undefined),0.511 µM,> 50 µM,1.1 µM,> 19.3 µM,0.456 µM,> 11.4 µM,0.288 µM,> 50 µM,1.24 µM,> 50 µM,0.555 µM,> 50 µM,10.3 µM,> 50 µM,0.236 µM,> 50 µM,0.393 µM,> 50 µM,0.195 µM,> 50 µM
CCc1ccc2c(c1)N(CCO)C1=C(C(=O)OC1)C2c1cccc(Br)c1 (centres undefined),0.468 µM,20.9 µM,2.43 µM,15.7 µM,0.256 µM,8.67 µM,0.806 µM,18.4 µM,0.847 µM,19.6 µM,0.216 µM,1.82 µM,1.81 µM,18.4 µM,0.35 µM,18.7 µM,0.711 µM,23 µM,0.409 µM,20.3 µM
C[C@@H]1CN(Cc2ccc(F)cc2)[C@@H](C)CN1C(=O)c1cc2c(C(=O)C(=O)N(C)C)cn(C)c2cc1Cl,19.8 µM,62.8 µM,14.9 µM,32.7 µM,13.1 µM,26 µM,17.4 µM,64.1 µM,17.6 µM,48.8 µM,12.3 µM,27.6 µM,30.3 µM,> 89.7 µM,24 µM,> 84.9 µM,16.1 µM,67.4 µM,13.4 µM,39.2 µM
